The values below come from patent US20240415791A1, “Therapeutic methods and compositions for treating cancer using devimistat and a fatty acid oxidation inhibitor, a tyrosine kinase inhibitor, a glutaminase inhibitor, and/or a glycolysis inhibitor” (Cornerstone Pharmaceuticals, Inc., priority 2021, published 2024).

In one data set the test system is BxPC-3 xenografts. As to the kind of experiment: Oral devimistat in BxPC3 pancreatic cancer xenografts. Type of data set: in vivo, mice. The following applies: weekly for 4 weeks. On the procedure:
An acclimation period of 7 days was allowed between the arrival of the animal at the study site before tumor inoculation and experimentation. Mice were inoculated subcutaneously (SC) in the right flank with 2×10^6 human H460 NSCLC or BxPC3 pancreatic cancer cells that were suspended in 0.1 mL of Dulbeco's Phosphate Buffered Salt (PBS) solution using a 1 cc syringe with a 27⅝ gauge needle. Tumor dimensions (length and width) were measured daily before, during and after treatment (using Vernier calipers) and the tumor volume was calculated using the prolate ellipsoid formula: (length×width^2)/2. Treatment with test or control articles began 8 days post tumor cell implantation when the tumor was approximately 300 mm^3.
A similar study was conducted in CD-1 nude mice (n=9) inoculated with 2×10^6 BxPC-3 cells. The study was initiated when tumors reached an average size of 150 mm^3 (day 0) and devimistat was administered at an oral dose of […] for 4 weeks. A comparator arm (n=9) was conducted with IP treatment at a weekly dose of 25 mg/kg.

For data set [1] the following is noted: cited from earlier work.
In data set [2] the test system is human H460 NSCLC xenografts. Briefly: Oral devimistat in H460 NSCLC xenografts. The following applies: oral 100 mg/kg on days 8, 15, 22, 29; vs 5% dextrose or untreated. Type of data set: in vivo, mice. On the procedure: Human H460 NSCLC cells were obtained from American Type Cell Culture (ATCC) (catalog no. HTB-177, Manassas, VA). These cells tested negative for viral contamination using the Mouse Antibody Production (MAP) test, performed by Charles River Labs Molecular Division, upon the receipt of the tumor cells from ATCC. The tumor cells were maintained at 37° C. in a humidified 5% CO2 atmosphere in T225 tissue culture flasks containing 50 mL of Roswell Park Memorial Institute (RPMI)-1640 solution with 10% Fetal Bovine Serum (FBS) and 2 mM L-glutamine. Cells were split at a ratio of 1:10 every 2-3 days by trypsinization and resuspended in fresh medium in a new flask. Cells were harvested for experiments in the same way at 70-90% confluency.
CD1-Nu/Nu female mice, ˜4-6 weeks old were obtained from Charles River Laboratories. Mice were housed 5 to a cage in a micro-isolator room in the Department of Animal Laboratory Research of New York State University (SUNY) at Stony Brook. Light-dark cycles were 12 h each daily, with light from 7 a.m. to 7 p.m. […]
An acclimation period of 7 days was allowed between the arrival of the animal at the study site before tumor inoculation and experimentation. […] Tumor dimensions (length and width) were measured daily before, during and after treatment (using Vernier calipers) and the tumor volume was calculated using the prolate ellipsoid formula: (length×width^2)/2. […]

In data set [3] the test system is BxPC3, PANC1, AsPC1 and H460 cells. Briefly: 3H-2-deoxyglucose uptake by tumor cell lines. Type of data set: cell-based, human. The following applies: 240 μM devimistat, complete RPMI, two hours. On the procedure: Cells were treated in complete RPMI with devimistat (240 μM) for a total of 2 hours, with a pulse of 1,2-^3H 2-deoxyglucose at the end of this treatment for the times indicated in Example 1D and FIG. 1D. Cells were harvested, washed, and counted to asses uptake. More particularly, seeding, drug treatment, and 2DG uptake were all performed in RPMI medium supplemented with 10% FBS for BXPC3, H460 and PANC1 cells and DMEM+10% FBS for AsPC1. All treatments were done in triplicate. BxPC3 cells were seeded at 500,000 cells per 35-mm dish; H460, PANC1, and AsPC1 cells were plated in 6 well plates at 300,000 cells per well for PANC1 and at 500,000 cells per well for AsPC1 and H460. […]
At the end of the 2 hour drug treatment, plates were placed on ice, medium removed and plates were washed three times with ice cold medium without FBS. […] Lysates were transferred into scintillation vials containing 3 mL of scintillation cocktail and counted.
D. Pulse analysis of ^3H-2-deoxyglucose (2DG) uptake by tumor cell lines. ˜8×10^5 cells were treated with 240 μM devimistat or solvent control in complete RPMI for two hours and pulse labeled by addition of 0.5 μCi of ^3H-2DG for the final 0.25 or 1 hour of treatment as indicated in FIG. 1D. Cells were washed in ice-cold RPMI without serum, lysed, and counted (see Methods, above).

A short description of data set [4]: Oral bioavailability / plasma pharmacokinetics of devimistat formulations in mice. The following applies: mouse, in vivo. On the set-up: species or system BALB/c nude mice. On the procedure:
[…]; 5 mL/kg; Ex. 7A); (2) 5 μL/g IP injection of the triethanolamine/dextrose aqueous solution of Example 7 (25 mg/kg; 5 mL/kg; 7A); (3) 5 μL/g oral administration of the Eudragit L100 SDD suspension of Example 7 (100 mg/kg; 5 mL/kg; 7B); (4) 5 μL/g oral administration of the HPMCAS-M SDD suspension of Example 7 (100 mg/kg; 5 mL/kg; 7C); (5) 5 μL/g oral administration of the 20 mg/mL devimistat suspension of Example 7 (100 mg/kg; 5 mL/kg; 7D); or (6) 10 μL/g oral administration of the 10 mg/mL SOLUTOL solution of Example 7 (100 mg/kg; 10 mL/kg; 7E). In each experiment, about 80 μL of blood was collected from one subgroup of 4 male and 4 female mice at 0.083, 1, 4, and 24 hours after dosing, and from the other subgroup of 4 male and 4 female mice at 0.5, 2, and 8 hours. Plasma from the collected blood samples was analyzed by LC-MS/MS for the presence of devimistat.

For `O=C(O)CCCCC(CCSCc1ccccc1)SCc1ccccc1` (stereo not drawn) [devimistat, 6,8-bis(benzylsulfanyl)octanoic acid], the “tumor growth in BxPC3 xenografts” value in the data set with BxPC-3 xenografts is listed as “especially pronounced”. Moreover, the “half-life after IV dosing” value in data set [1] (IV dosing) was 1 to 2 h. Further, the “peak serum concentration after clinical infusion” value in data set [1] (clinical IV infusion) was approximately 100 µM. For the same compound, in data set [2], the “tumor growth in H460 NSCLC xenografts” value is recorded as “grew much more slowly”. Further, the “3H-2-deoxyglucose (glucose) uptake” value in data set [3] is “accelerated glucose uptake”. Further, the “oral bioavailability (in words)” value in data set [4] was “orally bioavailable”.
